ChEMBL document CHEMBL5465560, “Selectivity Literature for EUbOPEN Chemogenomic Library” (2024)

Key:
[1] = target: T1, Phosphatidylinositol 3-kinase C2 domain-containing subunit gamma (Homo sapiens) (UniProt O75747); test: Selectivity interaction (KinomeScan (DiscoverX)) EUB0000695a PIK3C2G; conditions: at 100 nM
T1 sequence (whole entry): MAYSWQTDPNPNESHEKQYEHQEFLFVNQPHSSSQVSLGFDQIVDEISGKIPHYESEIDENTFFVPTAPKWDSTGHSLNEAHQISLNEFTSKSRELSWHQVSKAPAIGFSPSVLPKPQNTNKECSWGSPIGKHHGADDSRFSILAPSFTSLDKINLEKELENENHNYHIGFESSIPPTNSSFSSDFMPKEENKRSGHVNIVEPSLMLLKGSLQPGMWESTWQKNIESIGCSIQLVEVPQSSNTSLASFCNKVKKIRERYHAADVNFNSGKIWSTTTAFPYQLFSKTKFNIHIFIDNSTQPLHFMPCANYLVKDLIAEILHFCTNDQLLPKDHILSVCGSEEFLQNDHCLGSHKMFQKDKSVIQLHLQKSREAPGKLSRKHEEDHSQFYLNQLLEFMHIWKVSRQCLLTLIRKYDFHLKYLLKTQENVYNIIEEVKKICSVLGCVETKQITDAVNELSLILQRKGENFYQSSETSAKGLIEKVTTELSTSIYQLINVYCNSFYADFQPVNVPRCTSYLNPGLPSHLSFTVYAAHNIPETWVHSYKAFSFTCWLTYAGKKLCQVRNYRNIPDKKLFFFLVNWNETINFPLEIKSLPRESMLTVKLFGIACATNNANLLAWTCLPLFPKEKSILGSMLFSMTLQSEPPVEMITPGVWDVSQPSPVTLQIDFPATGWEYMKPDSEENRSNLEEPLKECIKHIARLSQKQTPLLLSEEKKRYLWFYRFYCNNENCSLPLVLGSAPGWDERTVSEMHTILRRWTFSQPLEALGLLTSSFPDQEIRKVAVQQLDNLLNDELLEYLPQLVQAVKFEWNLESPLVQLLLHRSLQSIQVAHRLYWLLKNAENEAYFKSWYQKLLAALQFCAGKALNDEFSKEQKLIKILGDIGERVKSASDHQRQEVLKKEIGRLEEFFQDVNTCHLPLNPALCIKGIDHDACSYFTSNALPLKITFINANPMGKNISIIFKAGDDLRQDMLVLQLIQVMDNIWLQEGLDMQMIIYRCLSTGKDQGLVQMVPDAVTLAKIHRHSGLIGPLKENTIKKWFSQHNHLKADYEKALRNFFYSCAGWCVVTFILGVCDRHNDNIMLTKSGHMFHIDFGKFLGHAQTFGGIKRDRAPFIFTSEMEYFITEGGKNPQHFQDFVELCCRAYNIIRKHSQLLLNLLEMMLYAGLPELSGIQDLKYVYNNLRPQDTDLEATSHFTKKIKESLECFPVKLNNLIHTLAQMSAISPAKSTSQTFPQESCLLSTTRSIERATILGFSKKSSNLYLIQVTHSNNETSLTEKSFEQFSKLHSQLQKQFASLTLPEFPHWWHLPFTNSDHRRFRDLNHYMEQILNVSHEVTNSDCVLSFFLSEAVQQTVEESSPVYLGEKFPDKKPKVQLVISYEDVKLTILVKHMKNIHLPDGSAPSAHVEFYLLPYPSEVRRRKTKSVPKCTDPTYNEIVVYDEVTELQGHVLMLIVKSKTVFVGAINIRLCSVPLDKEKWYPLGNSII

[2] = target: Tyrosine-protein kinase Fer (Homo sapiens) (UniProt P16591); test: Selectivity interaction (KinomeScan (DiscoverX)) EUB0000666a FER; conditions: at 10 µM
Sequence of Tyrosine-protein kinase Fer (Homo sapiens) (P16591 whole entry, looked up): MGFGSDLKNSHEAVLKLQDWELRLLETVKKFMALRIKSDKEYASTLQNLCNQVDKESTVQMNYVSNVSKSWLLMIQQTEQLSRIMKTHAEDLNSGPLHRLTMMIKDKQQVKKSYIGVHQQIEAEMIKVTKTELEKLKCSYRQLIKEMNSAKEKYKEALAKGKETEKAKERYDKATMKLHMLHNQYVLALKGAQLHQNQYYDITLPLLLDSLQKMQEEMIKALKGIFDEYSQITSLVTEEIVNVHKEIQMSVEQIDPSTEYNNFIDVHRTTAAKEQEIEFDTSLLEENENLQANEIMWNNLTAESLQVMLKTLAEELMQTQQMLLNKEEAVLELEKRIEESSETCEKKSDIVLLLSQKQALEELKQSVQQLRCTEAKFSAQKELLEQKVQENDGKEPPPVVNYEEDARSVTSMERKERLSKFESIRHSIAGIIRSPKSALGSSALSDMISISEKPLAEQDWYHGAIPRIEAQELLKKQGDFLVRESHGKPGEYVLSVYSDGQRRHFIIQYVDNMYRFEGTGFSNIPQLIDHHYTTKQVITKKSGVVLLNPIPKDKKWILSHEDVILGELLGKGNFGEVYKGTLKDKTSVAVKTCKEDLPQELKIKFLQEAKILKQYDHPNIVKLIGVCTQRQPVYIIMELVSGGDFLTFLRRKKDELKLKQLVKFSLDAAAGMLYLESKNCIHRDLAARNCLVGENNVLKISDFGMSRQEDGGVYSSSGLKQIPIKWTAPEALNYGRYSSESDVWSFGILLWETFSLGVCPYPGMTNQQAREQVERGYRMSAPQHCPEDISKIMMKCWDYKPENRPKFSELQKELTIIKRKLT

[3] = target: Glycogen synthase kinase-3 beta (Homo sapiens, UniProt P49841); test: Selectivity interaction (Kinase panel (DSF assay)) EUB0001558a GSK3B
Sequence of Glycogen synthase kinase-3 beta (P49841 whole entry, looked up): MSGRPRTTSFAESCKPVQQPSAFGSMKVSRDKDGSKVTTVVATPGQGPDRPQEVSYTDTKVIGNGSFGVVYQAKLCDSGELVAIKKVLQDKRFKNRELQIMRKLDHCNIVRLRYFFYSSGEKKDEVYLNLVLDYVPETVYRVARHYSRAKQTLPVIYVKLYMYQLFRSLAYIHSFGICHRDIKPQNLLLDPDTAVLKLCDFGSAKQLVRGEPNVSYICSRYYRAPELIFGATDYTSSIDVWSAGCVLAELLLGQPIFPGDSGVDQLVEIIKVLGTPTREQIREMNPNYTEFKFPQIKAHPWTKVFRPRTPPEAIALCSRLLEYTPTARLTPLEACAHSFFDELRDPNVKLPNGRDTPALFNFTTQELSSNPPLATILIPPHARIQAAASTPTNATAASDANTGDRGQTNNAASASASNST

[4] = test system: T2, Receptor-type tyrosine-protein kinase FLT3 (Homo sapiens), P36888 [N841I]; conditions: at 10 µM
T2 sequence (whole entry): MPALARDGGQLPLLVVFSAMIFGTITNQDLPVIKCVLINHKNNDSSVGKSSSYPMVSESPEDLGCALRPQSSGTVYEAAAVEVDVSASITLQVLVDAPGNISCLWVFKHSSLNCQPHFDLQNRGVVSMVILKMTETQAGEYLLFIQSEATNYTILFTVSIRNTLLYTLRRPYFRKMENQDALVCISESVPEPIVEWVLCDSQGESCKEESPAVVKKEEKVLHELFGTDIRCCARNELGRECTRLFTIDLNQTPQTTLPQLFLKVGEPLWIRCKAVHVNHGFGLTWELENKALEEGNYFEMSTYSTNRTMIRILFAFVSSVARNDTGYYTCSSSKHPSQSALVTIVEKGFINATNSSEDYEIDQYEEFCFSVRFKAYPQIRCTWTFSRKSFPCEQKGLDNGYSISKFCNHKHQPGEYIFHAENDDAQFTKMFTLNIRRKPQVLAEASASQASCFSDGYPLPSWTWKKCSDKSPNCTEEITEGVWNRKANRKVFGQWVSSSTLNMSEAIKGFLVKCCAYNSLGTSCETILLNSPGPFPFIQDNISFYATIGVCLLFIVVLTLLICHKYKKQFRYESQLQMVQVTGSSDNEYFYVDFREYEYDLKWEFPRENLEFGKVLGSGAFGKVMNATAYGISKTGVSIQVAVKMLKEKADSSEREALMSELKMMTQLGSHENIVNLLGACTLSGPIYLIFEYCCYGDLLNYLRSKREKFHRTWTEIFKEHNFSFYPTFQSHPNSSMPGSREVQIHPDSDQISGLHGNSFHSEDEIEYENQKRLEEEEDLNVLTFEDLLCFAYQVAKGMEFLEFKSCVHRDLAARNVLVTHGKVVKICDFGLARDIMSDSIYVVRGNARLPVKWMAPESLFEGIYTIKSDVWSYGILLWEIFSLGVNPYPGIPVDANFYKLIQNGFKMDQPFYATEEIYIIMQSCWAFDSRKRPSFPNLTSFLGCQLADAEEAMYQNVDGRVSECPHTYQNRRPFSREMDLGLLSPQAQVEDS

Work on `Cc1cc(F)c(C(=O)Nc2cccc(-c3nncn3C(C)C)n2)cc1-n1cnc(C2CC2)c1` yielded a % of control [1] of 87%.
`O=C(NOC[C@H](O)CO)c1ccc(F)c(F)c1Nc1ccc(I)cc1F` was tested, and the % of control [2] was 100%.
`CC(C)(O)[C@H](F)CN1Cc2cc(NC(=O)c3cnn4cccnc34)c(N3CCOCC3)cc2C1=O` gave a dTM [3] of 0.9 K.
In the case of `CCN(CC)CCCCNc1ncc2cc(-c3cc(OC)cc(OC)c3)c(NC(=O)NC(C)(C)C)nc2n1`, the % of control [4] is reported as 100%.
